In patent US11795460B2, “Compositions and methods for TTR gene editing and treating ATTR amyloidosis” (Intellia Therapeutics, Inc., priority 2017, dated 2023):
Strand notation (5' to 3'): a small letter for the sugar, then the base; units joined by * are phosphorothioate-linked, units joined directly phosphodiester-linked; [ ] holds rarer units or linkages, { } end groups; capitals alone tell only the bases. m = 2'-O-methyl; r = 2'-OH (RNA)

B1: G000509: TTR Cyno specific sgRNA modified sequence, SEQ ID No. 121; guide sequence of CR005369 (nucleic acid)
guide: mA*mA*mA*rGrUrUrCrUrArGrArUrGrCrCrGrUrCrCrGrGrUrUrUrUrArGrAmGmCmUmAmGmAmAmAmUmAmGmCrArArGrUrUrArArArArUrArArGrGrCrUrArGrUrCrCrGrUrUrArUrCrAmAmCmUmUmGmAmAmAmAmAmGmUmGmGmCmAmCmCmGmAmGmUmCmGmGmUmGmCmU*mU*mU*mU
B2: G000511: TTR Cyno specific sgRNA modified sequence, SEQ ID No. 123; guide sequence of CR005371 (nucleic acid)
guide: mA*mA*mG*rUrGrArCrUrUrCrCrArGrUrArArGrArUrUrGrUrUrUrUrArGrAmGmCmUmAmGmAmAmAmUmAmGmCrArArGrUrUrArArArArUrArArGrGrCrUrArGrUrCrCrGrUrUrArUrCrAmAmCmUmUmGmAmAmAmAmAmGmUmGmGmCmAmCmCmGmAmGmUmCmGmGmUmGmCmU*mU*mU*mU
B3: G000508: TTR Cyno specific sgRNA modified sequence, SEQ ID No. 120; guide sequence of CR005368 (nucleic acid)
guide: mC*mC*mU*rCrCrUrCrUrGrCrCrUrCrGrCrUrGrGrArCrGrUrUrUrUrArGrAmGmCmUmAmGmAmAmAmUmAmGmCrArArGrUrUrArArArArUrArArGrGrCrUrArGrUrCrCrGrUrUrArUrCrAmAmCmUmUmGmAmAmAmAmAmGmUmGmGmCmAmCmCmGmAmGmUmCmGmGmUmGmCmU*mU*mU*mU
B4: G000507: TTR Cyno specific sgRNA modified sequence, SEQ ID No. 119; guide sequence of CR005367 (nucleic acid)
guide: mC*mC*mA*rGrUrCrCrArGrCrGrArGrGrCrArGrArGrGrGrUrUrUrUrArGrAmGmCmUmAmGmAmAmAmUmAmGmCrArArGrUrUrArArArArUrArArGrGrCrUrArGrUrCrCrGrUrUrArUrCrAmAmCmUmUmGmAmAmAmAmAmGmUmGmGmCmAmCmCmGmAmGmUmCmGmGmUmGmCmU*mU*mU*mU
B5: G000510: TTR Cyno specific sgRNA modified sequence, SEQ ID No. 122; guide sequence of CR005370 (nucleic acid)
guide: mA*mC*mU*rUrGrUrCrUrUrCrUrCrUrArUrArCrCrCrArGrUrUrUrUrArGrAmGmCmUmAmGmAmAmAmUmAmGmCrArArGrUrUrArArArArUrArArGrGrCrUrArGrUrCrCrGrUrUrArUrCrAmAmCmUmUmGmAmAmAmAmAmGmUmGmGmCmAmCmCmGmAmGmUmCmGmGmUmGmCmU*mU*mU*mU

What was measured:
[1] = test system: off-target genomic sites; experiment: Off-target oligo insertion based assay in HEK293_Cas9 cells, dgRNAs and sgRNAs (Tables 23, 24); type: cell-based, human; conditions: Table 23; TTR dgRNAs in HekCas9 cells, oligo insertion based assay
Experimental: An oligo insertion based assay (See, e.g., Tsai et al., Nature Biotechnology 33, 187-197; 2015) was used to determine potential off-target genomic sites cleaved by Cas9 targeting TTR. Forty-five dgRNAs from Table 1 (and two control guides with known off-target profiles) were screened in the HEK293 Cas9 cells. The human embryonic kidney adenocarcinoma cell line HEK293 constitutively expressing Spy Cas9 (“HEK293_Cas9”) was cultured in DMEM media supplemented with 10% fetal bovine serum and 500 μg/ml G418. Cells were plated at a density of 30,000 cells/well in a 96-well plate 24 hours prior to transfection. Cells were transfected with Lipofectamine RNAiMAX (ThermoFisher, Cat. 13778150) per the manufacturer's protocol. Cells were transfected with a lipoplex containing individual crRNA (15 nM), trRNA (15 nM), and donor oligo with (10 nM) Lipofectamine RNAiMAX (0.3 μL/well) and OptiMem. Cells were lysed 24 hours post transfection and genomic DNA was extracting using Zymo's Quick gDNA 96 Extraction kit (catalog #D3012) following the manufacturer's recommended protocol. The gDNA was quantified using the Qubit High Sensitivity dsDNA kit (Life Technologies). Libraries were prepared per the previously described method in Tsai et al, 2015 with minor modifications. Sequencing was performed on Illumina's MiSeq and HiSeq 2500. The assay identified potential off-target sites for some of the crRNAs which are plotted in FIG. 2.
Additionally, a subset of the guides was assessed for off-target potential as modified sgRNAs in the Hek_Cas9 cells via the oligo based insertion method described above. The off-target results were plotted in FIG. 4.

[2] = test system: TTR; experiment: TTR editing in primary human hepatocytes electroporated with Spy Cas9 protein loaded with dgRNAs (Table 7); type: cell-based; conditions: dgRNA electroporated with Spy Cas9 protein (RNP)
Outline: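 Primary human or cynomolgus hepatocytes electroporated (Lonza P3 buffer, program EX-147) with Spy Cas9 RNP carrying pre-annealed crRNA/trRNA dual guides. Genomic DNA harvested at 24, 48 or 72 h; target amplicons sequenced by Illumina MiSeq. Percent editing = reads with indels or substitutions over total reads.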

[3] = test system: TTR; experiment: TTR editing in HepG2 cells transfected with Spy Cas9 mRNA and dgRNAs (Table 6); type: cell-based, human; conditions: HepG2 cells co-transfected with Spy Cas9 mRNA (SEQ ID NO:2) and dgRNAs
Outline: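 HepG2 cells were transfected sequentially by lipofection with Spy Cas9 mRNA (100 ng), then crRNA plus tracer RNA (25 nM each), and harvested at 24, 48 or 72 h. Editing was measured by amplicon NGS at the TTR target site as the fraction of reads with indels or substitutions.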

[4] = test system: TTR; experiment: TTR editing in primary human hepatocytes transfected with Spy Cas9 protein (RNP) loaded with dgRNAs (Table 8); type: cell-based; conditions: dgRNA transfected with Spy Cas9 protein (RNP)
Outline: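 Primary human hepatocytes were lipofected (RNAiMAX) with RNP of Spy Cas9 (10 nM) plus pre-annealed crRNA (10 nM) and trRNA (10 nM) and harvested 24, 48 or 72 h later. Target-site amplicons were sequenced on Illumina MiSeq and aligned to hg38; percent editing = reads with indels or substitutions over total reads.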

[5] = test system: TTR; experiment: TTR editing in primary human hepatocytes transfected with Spy Cas9 mRNA and dgRNAs (Table 9); type: cell-based; conditions: dgRNA co-transfected with Spy Cas9 mRNA (SEQ ID NO:2)
Outline: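 PHH sequentially lipofected with Spy Cas9 mRNA (100 ng), then crRNA plus tracrRNA (25 nM each) dual-guide lipoplex. Cells harvested 24, 48 or 72 h post-transfection; TTR target amplicons sequenced on Illumina MiSeq, editing given as percent reads with indels or substitutions over total reads.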

[6] = test system: TTR; experiment: TTR editing in primary cyno hepatocytes electroporated with Spy Cas9 protein and sgRNAs (Tables 14, 15); type: cell-based, cynomolgus monkey; conditions: Table 15; primary cyno hepatocytes electroporated with Spy Cas9 protein (RNP) and cyno specific sgRNAs
Experimental: (§1) Primary liver hepatocytes. Primary human liver hepatocytes (PHH) and primary cynomolgus liver hepatocytes (PCH) (Gibco) were cultured per the manufacturer's protocol (Invitrogen, protocol 11.28.2012). In brief, the cells were thawed and resuspended in hepatocyte thawing medium with supplements (Gibco, Cat. CM7000) followed by centrifugation at 100 g for 10 minutes for human and 80 g for 4 minutes for cyno. The supernatant was discarded and the pelleted cells resuspended in hepatocyte plating medium plus supplement pack (Invitrogen, Cat. A1217601 and CM3000). Cells were counted and plated on Bio-coat collagen I coated 96-well plates (ThermoFisher, Cat. 877272) at a density of 33,000 cells/well for human or 60,000 cells/well for cyno (or 65,000 cells/well when assaying effects on TTR protein, described further below). Plated cells were allowed to settle and adhere for 6 or 24 hours in a tissue culture incubator at 37° C. and 5% CO2 atmosphere. After incubation cells were checked for monolayer formation and media was replaced with hepatocyte culture medium with serum-free supplement pack (Invitrogen, Cat. A1217601 and CM4000).
[…] formation was performed prior to electroporation or transfection of Spy Cas9 protein loaded with guide RNAs (RNPs) onto cells. For dual guide (dgRNAs), individual crRNA and trRNA was pre-annealed by mixing equivalent amounts of reagent and incubating at 95° C. for 2 min and cooling to room temperature. Single guide (sgRNAs) were boiled at 95° C. for 2 min and cooling to room temperature. The boiled dgRNA or sgRNA was incubated with Spy Cas9 protein in Optimem for 10 minutes at room temperature to form a ribonucleoprotein (RNP) complex.
For RNP electroporation into primary human and cyno hepatocytes, the cells are thawed and resuspended in Lonza electroporation Primary Cell P3 buffer at a concentration of 2500 cells per μL for human hepatocytes and 3500 cells per μL for cyno hepatocytes. A volume of 20 μL of resuspended cells and 5 μL of RNP are mixed together per guide. 20 μL of the mixture is placed into a Lonza electroporation plate. The cells were electroporated using the Lonza nucleofector with the preset protocol EX-147. Post electroporation, the cells are transferred into a Biocoat plate containing pre-warmed maintenance media and placed in a tissue culture incubator at 37° C. and 5% CO2.
Transfected cells were harvested post-transfection at 24, 48, or 72 hours. The genomic DNA was extracted from each well of a 96-well plate using 50 μL/well BuccalAmp DNA Extraction solution (Epicentre, Cat. QE09050) per manufacturer's protocol. All DNA samples were subjected to PCR and subsequent NGS analyses, as described herein.
(§2) To quantitatively determine the efficiency of editing at the target location in the genome, sequencing was utilized to identify the presence of insertions and deletions introduced by gene editing.
(§3) Primers were designed around the target site within the gene of interest (e.g. TTR), and the genomic area of interest was amplified.
(§4) Additional PCR was performed per the manufacturer's protocols (Illumina) to add chemistry for sequencing. The amplicons were sequenced on an Illumina MiSeq instrument. The reads were aligned to a reference genome (e.g., the human reference genome (hg38), the cynomologus reference genome (mf5), the rat reference genome (rn6), or the mouse reference genome (mm10)) after eliminating those having low quality scores. The resulting files containing the reads were mapped to the reference genome (BAM files), where reads that overlapped the target region of interest were selected and the number of wild type reads versus the number of reads which contain an insertion, substitution, or deletion was calculated.
The editing percentage (e.g., the “editing efficiency” or “percent editing” or “indel frequency”) is defined as the total number of sequence reads with insertions/deletions (“indels”) or substitutions over the total number of sequence reads, including wild type. […]

[7] = test system: TTR; experiment: TTR editing in primary cyno hepatocytes treated with LNP formulated Spy Cas9 mRNA (SEQ ID NO: 2) and sgRNAs (Tables 17, 18); type: cell-based, cynomolgus monkey; conditions: LNP formulated Spy Cas9 mRNA (SEQ ID NO: 2) and cyno matched sgRNAs, 72 hours post treatment
Experimental: as §1
In general, the lipid nanoparticle components were dissolved in 100% ethanol with the lipid component of various molar ratios. The RNA cargos were dissolved in 25 mM citrate, 100 mM NaCl, pH 5.0, resulting in a concentration of RNA cargo of approximately 0.45 mg/mL. The LNPs were formulated with a lipid amine to RNA phosphate (N:P) molar ratio of about 4.5 or about 6, with the ratio of mRNA to gRNA at 1:1 by weight.
The LNPs were formed by microfluidic mixing of the lipid and RNA solutions using a Precision Nanosystems NanoAssemblr™ Benchtop Instrument, according to the manufacturer's protocol. A 2:1 ratio of aqueous to organic solvent was maintained during mixing using differential flow rates. After mixing, the LNPs were collected, diluted in water (approximately 1:1 v/v), held for 1 hour at room temperature, and further diluted with water (approximately 1:1 v/v) before final buffer exchange. The final buffer exchange into 50 mM Tris, 45 mM NaCl, 5% (w/v) sucrose, pH 7.5 (TSS) was completed with PD-10 desalting columns (GE). If required, formulations were concentrated by centrifugation with Amicon 100 kDa centrifugal filters (Millipore). The resulting mixture was then filtered using a 0.2 μm sterile filter. The final LNP was stored at −80° C. until further use.
as §2, §3, §4
The editing percentage (e.g., the “editing efficiency” or “percent editing” or “indel frequency”) is defined as the total number of sequence reads with insertions/deletions (“indels”) or substitutions over the total number of sequence reads, including wild type.
Lipid nanoparticle formulations of modified sgRNAs targeting human TTR and the cyno matched sgRNA sequences were tested on primary human hepatocytes and primary cyno hepatocytes in a dose response curve. Primary human and cyno hepatocytes were plated as described in Example 1. […]

Molecule	# Sites (off-target integration sites detected) [1]	Avg % Deletion [2] [%]	Avg % Edit [2] [%]	Avg % Insert [2] [%]	Avg % Deletion [3] [%]	Avg % Edit [3] [%]	Avg % Insert [3] [%]	Avg % Deletion [4] [%]	Avg % Edit [4] [%]	Avg % Insert [4] [%]	Avg % Deletion [5] [%]	Avg % Edit [5] [%]	Avg % Insert [5] [%]	Avg % Deletion [6] [%]	Avg % Edit [6] [%]	Avg % Insert [6] [%]	12.5 ng mRNA, 3.9 nM sgRNA % Edit [7] [%]
UCCACUCAUUCUUGGCAGGA (tested as dual guide RNA, chemistry not given here) [CR005298]	0	17.57	39.90	22.37	21.36	42.65	21.29	10.95	32.07	21.12	11.60	15.70	4.13				
UCACAGAAACACUCACCGUA (tested as dual guide RNA, chemistry not given here) [CR005300]	0	4.10	57.47	53.47	11.15	64.34	53.20	3.61	57.23	53.62	3.97	31.53	27.60				
B1														49.73	93.03	43.60	74.47
B2														2.00	62.77	60.87	
B3														4.17	45.63	41.57	
B4														4.60	71.17	67.03	
B5														1.77	90.80	89.13	61.87
